Assay results reported in ChEMBL document CHEMBL1135389, “7-Substituted 5-amino-2-(2-furyl)pyrazolo[4,3-e]-1,2,4-triazolo[1,5-c]pyrimidines as A2A adenosine receptor antagonists: a study on the importance of modifications at the side chain on the activity and solubility” (J Med Chem, 2002).

Experiments:
Adenosine receptor A2b = target: T1, Adenosine receptor A2b (Homo sapiens, UniProt P29275); assay: biochemical
T1 sequence (P29275 whole entry): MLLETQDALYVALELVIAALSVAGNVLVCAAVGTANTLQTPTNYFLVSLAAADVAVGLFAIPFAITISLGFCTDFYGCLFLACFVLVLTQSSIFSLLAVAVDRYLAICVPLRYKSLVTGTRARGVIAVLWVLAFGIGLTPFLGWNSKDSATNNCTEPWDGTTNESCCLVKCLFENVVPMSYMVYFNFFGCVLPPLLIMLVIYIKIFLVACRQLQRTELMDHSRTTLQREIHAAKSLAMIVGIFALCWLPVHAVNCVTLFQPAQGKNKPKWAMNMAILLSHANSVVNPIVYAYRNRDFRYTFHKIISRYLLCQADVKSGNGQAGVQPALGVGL
Description: Displacement of specific [3H]DPCPX binding at human adenosine A2B receptor expressed in HEK293 cells.

Adenosine receptor A1 [1] = target: T2, Adenosine receptor A1 (Homo sapiens, UniProt P30542); assay: biochemical
T2 sequence (P30542 whole entry): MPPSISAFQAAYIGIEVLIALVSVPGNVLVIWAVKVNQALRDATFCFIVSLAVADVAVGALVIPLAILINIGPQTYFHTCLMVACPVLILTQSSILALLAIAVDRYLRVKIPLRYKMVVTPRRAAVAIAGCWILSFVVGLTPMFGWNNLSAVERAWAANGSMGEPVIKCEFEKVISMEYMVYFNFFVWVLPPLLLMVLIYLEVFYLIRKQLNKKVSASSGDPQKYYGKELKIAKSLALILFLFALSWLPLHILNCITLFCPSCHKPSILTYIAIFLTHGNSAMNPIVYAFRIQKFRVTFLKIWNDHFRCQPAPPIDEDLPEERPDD
Description: Displacement of specific [3H]DPCPX binding at human Adenosine A1 receptor expressed in CHO cells.

Adenosine receptor A3 = target: T3, Adenosine receptor A3 (Homo sapiens, UniProt P0DMS8); assay: Displacement of specific [3H]MRE3008-F20 binding at human adenosine A3 receptor expressed in CHO cells.; format: cell-based
T3 sequence (P0DMS8 whole entry): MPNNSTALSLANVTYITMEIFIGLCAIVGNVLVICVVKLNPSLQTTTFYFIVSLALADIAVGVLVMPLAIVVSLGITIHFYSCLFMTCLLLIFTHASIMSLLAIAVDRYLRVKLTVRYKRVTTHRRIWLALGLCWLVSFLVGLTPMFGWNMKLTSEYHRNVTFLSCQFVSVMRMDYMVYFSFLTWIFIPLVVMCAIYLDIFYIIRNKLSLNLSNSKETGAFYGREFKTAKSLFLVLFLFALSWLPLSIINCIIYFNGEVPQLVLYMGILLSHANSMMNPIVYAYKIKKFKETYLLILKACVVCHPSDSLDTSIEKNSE

Adenosine receptor A2a [2] = target: T4, Adenosine receptor A2a (Homo sapiens, UniProt P29274); assay: biochemical
T4 sequence (P29274 whole entry): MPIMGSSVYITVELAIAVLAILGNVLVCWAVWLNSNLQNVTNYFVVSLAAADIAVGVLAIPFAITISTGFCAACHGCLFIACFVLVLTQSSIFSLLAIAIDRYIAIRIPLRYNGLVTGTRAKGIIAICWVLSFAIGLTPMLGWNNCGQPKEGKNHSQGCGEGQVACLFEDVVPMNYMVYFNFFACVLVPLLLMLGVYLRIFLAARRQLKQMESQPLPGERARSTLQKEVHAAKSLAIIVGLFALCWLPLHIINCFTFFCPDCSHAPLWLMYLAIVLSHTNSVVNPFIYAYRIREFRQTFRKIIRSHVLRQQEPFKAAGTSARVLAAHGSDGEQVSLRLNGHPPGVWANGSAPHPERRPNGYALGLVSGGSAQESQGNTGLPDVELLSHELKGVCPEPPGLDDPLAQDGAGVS

Adenosine receptor A2a [3] = target: T4, Adenosine receptor A2a; assay: Displacement of [3H]-SCH- 58261 binding at human Adenosine A2A receptor expressed in HEK293 cells; ranges from 49-72; format: cell-based
Adenosine receptor A1 [4] = target: T2, Adenosine receptor A1; assay: Displacement of [3H]DPCPX from human Adenosine A1 receptor expressed in CHO cells; ranges from 3420-3788; format: cell-based
Adenosine receptor A2a [5] = target: T4, Adenosine receptor A2a; assay: Displacement of [3H]-SCH- 58261 binding at human Adenosine A2A receptor expressed in HEK293 cells; ranges from 0.69-0.92; format: cell-based
Adenosine receptor A1 [6] = target: T2, Adenosine receptor A1; assay: Displacement of [3H]-DPCPX from human Adenosine A1 receptor expressed in CHO cells; ranges from 2153-2891; format: cell-based
Adenosine receptor A1 [7] = target: T2, Adenosine receptor A1; assay: Displacement of [3H]DPCPX binding at human Adenosine A1 receptor expressed in CHO cells; ranges from 8783-9911; format: cell-based
Adenosine receptor A2a [8] = target: T4, Adenosine receptor A2a; assay: Displacement of [3H]-SCH- 58261 binding at human Adenosine A2A receptor expressed in HEK293 cells; ranges from 48.9-52.4; format: cell-based
Adenosine receptor A1 [9] = target: T2, Adenosine receptor A1; assay: Displacement of [3H]DPCPX binding at human Adenosine A1 receptor expressed in CHO cells; ranges from 5697-7171; format: cell-based
Adenosine receptor A2a [10] = target: T4, Adenosine receptor A2a; assay: Displacement of [3H]-SCH- 58261 binding at human Adenosine A2A receptor expressed in HEK293 cells; ranges from 66-85; format: cell-based

| SMILES | Ki (Adenosine receptor A2b) [nM] | Ki (Adenosine receptor A1 [1]) [nM] | Ki (Adenosine receptor A3) [nM] | Ki (Adenosine receptor A2a [2]) [nM] | other results |
| --- | --- | --- | --- | --- | --- |
| N/C(=N\O)c1ccc(CCn2ncc3c2nc(N)n2nc(-c4ccco4)nc32)cc1 | > 10000 | 179 | > 10000 | 0.18 |  |
| N#Cc1ccc(CCCn2ncc3c2nc(N)n2nc(-c4ccco4)nc32)cc1 | > 10000 | 6500 | > 10000 | 86 |  |
| CCOC(=O)COc1ccc(CCn2ncc3c2nc(N)n2nc(-c4ccco4)nc32)cc1 | > 10000 | 4200 | > 10000 | 0.43 |  |
| Nc1nc2c(cnn2CCc2ccc(N(CCO)CCO)cc2)c2nc(-c3ccco3)nn12 | > 10000 | 123 | > 10000 | 0.12 |  |
| Nc1nc2c(cnn2CCCc2ccc([N+](=O)[O-])cc2)c2nc(-c3ccco3)nn12 | > 10000 | 1030 | > 10000 | 1 |  |
| Nc1ccc(CCn2ncc3c2nc(N)n2nc(-c4ccco4)nc32)cc1 | > 10000 | 576 | > 10000 | 0.13 |  |
| NCc1ccc(CCCn2ncc3c2nc(N)n2nc(-c4ccco4)nc32)cc1 | > 10000 | 60 | > 10000 | 6 |  |
| Nc1nc2c(cnn2CCCc2ccc3c(c2)O[C@H](C(=O)O)O3)c2nc(-c3ccco3)nn12 | > 10000 |  | > 10000 |  | Ki (Adenosine receptor A2a [3]): 59 nM; Ki (Adenosine receptor A1 [4]): 3600 nM |
| CC(=O)Nc1ccc(CCn2ncc3c2nc(N)n2nc(-c4ccco4)nc32)cc1 | > 10000 | 419 | > 10000 | 4.8 |  |
| Nc1nc2c(cnn2CCc2ccc(S(=O)(=O)N(CCO)CCO)cc2)c2nc(-c3ccco3)nn12 | > 10000 |  | > 10000 |  | Ki (Adenosine receptor A2a [5]): 0.8 nM; Ki (Adenosine receptor A1 [6]): 2500 nM |
| N/C(=N/O)c1ccc(CCCn2ncc3c2nc(N)n2nc(-c4ccco4)nc32)cc1 | > 10000 | 60 | > 10000 | 6 |  |
| Nc1nc2c(cnn2CCc2ccc(S(=O)(=O)NCC(=O)O)cc2)c2nc(-c3ccco3)nn12 | > 10000 |  | > 10000 |  | Ki (Adenosine receptor A1 [7]): 9330 nM; Ki (Adenosine receptor A2a [8]): 50 nM |
| Nc1nc2c(cnn2CCc2ccc(S(=O)(=O)O)cc2)c2nc(-c3ccco3)nn12 | > 10000 | 190 | > 10000 | 100 |  |
| Nc1nc2c(cnn2CCCc2cc3c(cc2S(=O)(=O)O)OCO3)c2nc(-c3ccco3)nn12 | > 10000 |  | > 10000 |  | Ki (Adenosine receptor A1 [9]): 6390 nM; Ki (Adenosine receptor A2a [10]): 75 nM |
